According to the supplement of paper PMC6045584:
± gives the standard deviation of the averaged measurements.

How the values were obtained:
[1] = compound: CNC(=O)c1cc(Oc2ccc(NC(=O)Nc3ccc(Cl)c(C(F)(F)F)c3)cc2)ccn1 [SORAFENIB]; experiment: surviving fraction relative to DMSO-only wells; higher = less growth inhibition; conditions: exposure time: 5 days
Summary of the method: (§1)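 Five days of continuous inhibitor exposure, at 0.5, 1, 5, 10, 50, 100, 500 and 1000 nM, followed a 24-hour period after log-phase tumour cell lines were seeded at 250–500 cells per well in 384-well plates. Surviving fraction was derived from CellTiter-Glo luminescence relative to the median of DMSO-only wells. Plates were read after 10 minutes at room temperature, and lines screened three times were kept only if replicate Pearson r >0.7 and median Z' >0.3.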

[2] = compound: O=C(c1cc(Cc2n[nH]c(=O)c3ccccc23)ccc1F)N1CCN(C(=O)C2CC2)CC1 [OLAPARIB]; experiment: as above; conditions: exposure time: 5 days
Summary of the method: as §1

| Test System | surviving fraction ([1]; 0.5 nM) | surviving fraction ([1]; 1 nM) | surviving fraction ([1]; 5 nM) | surviving fraction ([1]; 10 nM) | surviving fraction ([1]; 50 nM) | surviving fraction ([1]; 100 nM) | surviving fraction ([1]; 500 nM) | surviving fraction ([1]; 1000 nM) | surviving fraction ([2]; 0.5 nM) | surviving fraction ([2]; 1 nM) | surviving fraction ([2]; 5 nM) | surviving fraction ([2]; 10 nM) | surviving fraction ([2]; 50 nM) | surviving fraction ([2]; 100 nM) | surviving fraction ([2]; 500 nM) | surviving fraction ([2]; 1000 nM) |
| --- | --- | --- | --- | --- | --- | --- | --- | --- | --- | --- | --- | --- | --- | --- | --- | --- |
| SAOS2 BONE | 0.935 ± 0.028 | 1.019 ± 0.0098 | 1.072 ± 0.0081 | 1.04 ± 0.064 | 1.17 ± 0.017 | 1.237 ± 0.0023 | 1.196 ± 0.01 | 1.07 ± 0.079 | 1.078 ± 0.0052 | 1.02 ± 0.022 | 1.16 ± 0.072 | 1.07 ± 0.042 | 0.882 ± 0.021 | 0.8217 ± 0.0046 | 0.753 ± 0.013 | 0.692 ± 0.027 |
| CAL51 BREAST | 0.979 ± 0.04 | 0.991 ± 0.014 | 0.9937 ± 0.0025 | 1.01 ± 0.022 | 1.12 ± 0.046 | 1.1 ± 0.05 | 1.02 ± 0.034 | 0.977 ± 0.041 | 0.97 ± 0.044 | 1 ± 0.051 | 0.95 ± 0.025 | 0.926 ± 0.07 | 0.948 ± 0.03 | 0.882 ± 0.076 | 0.828 ± 0.024 | 0.66 ± 0.051 |
| C33A CERVIX | – | 1.1 ± 0.17 | 1.08 ± 0.084 | 1.07 ± 0.075 | 1.18 ± 0.17 | 1.23 ± 0.17 | 1.21 ± 0.069 | 1.19 ± 0.13 | 1.04 ± 0.098 | 1.04 ± 0.02 | 1.07 ± 0.049 | 1.03 ± 0.017 | 1.05 ± 0.098 | 0.998 ± 0.14 | 0.895 ± 0.068 | 0.841 ± 0.11 |
| HSSYII SYNOVIAL | 1 ± 0.059 | 0.975 ± 0.026 | 0.977 ± 0.038 | 0.942 ± 0.035 | 0.947 ± 0.037 | 1.01 ± 0.024 | 0.855 ± 0.035 | 0.779 ± 0.038 | 0.941 ± 0.039 | 0.949 ± 0.027 | 0.882 ± 0.076 | 0.86 ± 0.013 | 0.827 ± 0.022 | 0.769 ± 0.055 | 0.6097 ± 0.0048 | 0.484 ± 0.046 |
| HUO3N1 BONE | 1 ± 0.053 | – | – | 1 ± 0.036 | 1.004 ± 0.01 | 0.941 ± 0.04 | 0.818 ± 0.029 | 0.82 ± 0.017 | 1.008 ± 0.0076 | 1.01 ± 0.024 | 1.06 ± 0.029 | 1.02 ± 0.031 | 1.03 ± 0.045 | 0.922 ± 0.032 | 0.913 ± 0.014 | 0.834 ± 0.02 |
| ZR751 BREAST | 1.08 ± 0.086 | 1.04 ± 0.02 | 0.99 ± 0.056 | 1.02 ± 0.18 | 1.28 ± 0.042 | 1.31 ± 0.19 | – | 1.06 ± 0.072 | 1.11 ± 0.17 | 1.08 ± 0.13 | 1.08 ± 0.35 | 1.01 ± 0.1 | 1.1 ± 0.023 | 1.11 ± 0.086 | 1.14 ± 0.089 | 1.02 ± 0.14 |
| BT549 BREAST | 1.2 ± 0.1 | 1.11 ± 0.17 | 1.037 ± 0.01 | 1.15 ± 0.068 | 1.07 ± 0.081 | – | 1.09 ± 0.11 | 1.11 ± 0.16 | 1.03 ± 0.096 | 1.01 ± 0.064 | 0.941 ± 0.0053 | 0.9883 ± 0.0074 | 0.686 ± 0.041 | 0.719 ± 0.062 | 0.718 ± 0.033 | 0.598 ± 0.048 |
| JIMT1 BREAST | – | 0.986 ± 0.028 | 1.02 ± 0.022 | 0.97 ± 0.014 | – | 1.05 ± 0.046 | – | 0.986 ± 0.071 | 0.917 ± 0.035 | 0.911 ± 0.024 | 0.9352 ± 0.0078 | 0.907 ± 0.023 | 0.934 ± 0.026 | 0.9217 ± 0.0036 | 0.9207 ± 0.0084 | 0.846 ± 0.025 |
| PCI30 HEADNECK | 1.04 ± 0.038 | – | 1.02 ± 0.045 | 1.04 ± 0.06 | 1.06 ± 0.098 | 1.11 ± 0.096 | 1.11 ± 0.059 | 1.12 ± 0.013 | 0.973 ± 0.043 | 0.969 ± 0.12 | 1.03 ± 0.016 | 1.02 ± 0.095 | 0.98 ± 0.069 | 0.92 ± 0.052 | 0.856 ± 0.057 | 0.744 ± 0.05 |
| SJSA1 BONE | 1.02 ± 0.012 | 0.969 ± 0.036 | 0.985 ± 0.048 | – | 1.07 ± 0.041 | 1.03 ± 0.041 | 1 ± 0.11 | 0.967 ± 0.026 | 1 ± 0.025 | 1.01 ± 0.045 | 1.03 ± 0.061 | 1.02 ± 0.066 | 1.01 ± 0.083 | 0.963 ± 0.024 | 0.931 ± 0.051 | 0.876 ± 0.039 |
| MDAMB157 BREAST | 0.962 ± 0.016 | 0.909 ± 0.064 | 0.984 ± 0.03 | 0.923 ± 0.046 | – | 1.01 ± 0.059 | 0.963 ± 0.036 | – | 1.01 ± 0.093 | 1.06 ± 0.035 | 0.992 ± 0.085 | 0.968 ± 0.051 | 0.991 ± 0.096 | 0.965 ± 0.043 | 0.903 ± 0.079 | 0.729 ± 0.04 |
